Reference: patent EP0769966B1, “BIOTIN COMPOUNDS FOR TARGETTING TUMORS AND SITES OF INFECTION” (priority 1994, dated 1995)

Key:
[1] = target: avidin (Gallus gallus, UniProt P02701); assay: Competitive binding of F-18 labeled biotin analogs to avidin vs. unlabeled d-biotin; conditions: in the presence of varying concentrations of unlabeled d-biotin
Protocol: The two biotin derivatives were evaluated for binding to avidin in the presence of varying concentrations of unlabeled d-biotin as described in Example 3.
A preliminary measure of the binding characteristics of the fluoro analogs of biotin were performed. The binding of these novel F-18 labeled biotin analogs to avidin was evaluated by measuring the binding of F-18 labeled biotin analogs to avidin in the presence of varying concentrations of unlabeled d-biotin. Serial dilutions of d-biotin were prepared in phopshate buffered saline pH 7.4 (PBS). A fixed quantity of the no-carrier added F-18 labeled biotin 1 or 2 (10- 100µCi) were mixed with each d-biotin dilution so that the range of concentrations of cold biotin were 3 orders of magnitude greater and less than the concentration of avidin ([…]). A 200 µl aliquot of the F-18 biotin/cold biotin solution was added to 200 µl of avidin in PBS. The solution was vortexed and allowed to incubate for 1 hour after which time a 5 µl aliquot of the solution was analysed by instant thin layer chromatography (Gelman ILTC-SG) using 0.1 M acetate buffer pH 6.0. In this chromatographic system the F-18 biotin analogs bound to avidin origin while the unbound F-18-biotin analogs move to the solvent front. Percent binding of F-18 biotin analog was calculated as [(counts at origin/total counts)* 100]. For each F-18-biotin analog potential impurities remaining at the origin were determined and the results of binding corrected accordingly.

[2] = in vivo; type: in vivo, male Sprague-Dawley rats; conditions: rat, in vivo, iv
Protocol: (§1) A clinical isolate of E. Coli was stored at -70°C in a freezing media containing 20% glycerol and 80% dextrose phosphate until use. Aliquots of bacteria were defrosted and colony counts performed on serial dilutions grown overnight on BBL Brucella agar plates. Based on the colony count, freshly thawed bacteria suspensions were washed and diluted with saline to a final concentration of […]. Aliquots (0.1 ml) of bacterial suspensions (8 x 10^9 organisms/ml) were injected into the right thigh muscle of 48 male Sprague-Dawley rats (125-150 g, Charles River Breeding Laboratories, Burlington, MD). Twenty-four rats were used for each labeled biotin compound. Twenty-four hours after injection, swelling in the right thigh readily appeared, and 24 rats each received 1.67 mg of avidin in saline via the tail vein. […] Rats were sacrificed at 5 and 60 min. post-injection, six rats per time point. Blood samples were obtained by cardiac puncture. Syringes were weighed before and after injection to determine the volume delivered. The activity per unit volume was obtained from standards. A total of eleven different tissues were excised, weighed, and counted. These tissues included blood; bone; lung; liver; adrenal; spleen; kidneys; heart; muscle (thigh); teste; and infected muscle (thigh). The excised tissues were blotted, weighed, and counted in a scintillation well counter. The raw counts were decay corrected. The results were expressed as percent injected dose per gram, and infection-to-normal muscle ratios (mean ± s.d.). The biodistribution results were evaluated by analysis of variance (one-way ANOVA). The effect of avidin […] on biodistribution was evaluated by student t-test.

[3] = tested on: E. coli infected rats; assay: in vivo; type: in vivo, male Sprague-Dawley rats; conditions: for Infected to normal tissue ratio, Norm mus: infection/normal muscle
Protocol: as §1

[4] = tested on: E. coli infection in right thigh; conditions: Time 4 (time unit not given); Reference *1; cited from earlier work

avidin, sequence (P02701 25-152): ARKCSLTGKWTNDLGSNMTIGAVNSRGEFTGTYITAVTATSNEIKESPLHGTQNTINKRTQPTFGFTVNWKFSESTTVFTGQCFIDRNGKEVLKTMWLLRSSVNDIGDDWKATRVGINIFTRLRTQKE

O=C1N[C@H]2[C@H](CS[C@H]2CCCCC[18F])N1 [Biotin 2]
binding to avidin [1]: no specific binding | tissue uptake at 5 min ([2]; Tissue distribution, Adrenal): 1.56 ± 0.14 %ID/g | tissue uptake at 1 h ([2]; Tissue distribution, Adrenal): 0.92 ± 0.21 %ID/g | tissue uptake at 5 min ([2]; Tissue distribution, Blood): 0.88 ± 0.07 %ID/g | tissue uptake at 1 h ([2]; Tissue distribution, Blood): 0.3 ± 0.02 %ID/g | tissue uptake at 5 min ([2]; Tissue distribution, Bone): 0.73 ± 0.09 %ID/g | tissue uptake at 1 h ([2]; Tissue distribution, Bone): 1.17 ± 0.21 %ID/g | tissue uptake at 5 min ([2]; Tissue distribution, Heart): 0.8 ± 0.06 %ID/g | tissue uptake at 1 h ([2]; Tissue distribution, Heart): 0.25 ± 0.03 %ID/g | tissue uptake at 5 min ([2]; Tissue distribution, Inf mus): 0.49 ± 0.05 %ID/g | tissue uptake at 1 h ([2]; Tissue distribution, Inf mus): 0.2 ± 0.02 %ID/g | tissue uptake at 5 min ([2]; Tissue distribution, Kidney): 1.62 ± 0.18 %ID/g | tissue uptake at 5 min ([2]; Tissue distribution, Liver): 1.63 ± 0.27 %ID/g | tissue uptake at 1 h ([2]; Tissue distribution, Liver): 0.42 ± 0.03 %ID/g | tissue uptake at 5 min ([2]; Tissue distribution, Lung): 1.38 ± 0.21 %ID/g | tissue uptake at 1 h ([2]; Tissue distribution, Lung): 0.58 ± 0.1 %ID/g | tissue uptake at 5 min ([2]; Tissue distribution, Norm mus): 0.62 ± 0.09 %ID/g | tissue uptake at 1 h ([2]; Tissue distribution, Norm mus): 0.35 ± 0.09 %ID/g | tissue uptake at 5 min ([2]; Tissue distribution, Spleen): 1.7 ± 0.68 %ID/g | tissue uptake at 1 h ([2]; Tissue distribution, Spleen): 0.26 ± 0.01 %ID/g | tissue uptake at 5 min ([2]; Tissue distribution, Teste): 0.59 ± 0.08 %ID/g | tissue uptake at 1 h ([2]; Tissue distribution, Teste): 0.2 ± 0.03 %ID/g | tissue uptake at 1 h ([2]; ^18F bone uptake (defluorination in vivo)): 1.17 ± 0.21 %ID/g | Infected to normal tissue ratio, Adrenal ([3]; With Avidin, 5 Min.): 0.22±0.03 | Infected to normal tissue ratio, Blood ([3]; With Avidin, 5 Min.): 0.51±0.07 | Infected to normal tissue ratio, Heart ([3]; With Avidin, 5 Min.): 0.46±0.03 | Infected to normal tissue ratio, Kidney ([3]; With Avidin, 5 Min.): 0.16±0.02 | Infected to normal tissue ratio, Liver ([3]; With Avidin, 5 Min.): 0.23±0.02 | Infected to normal tissue ratio, Lung ([3]; With Avidin, 5 Min.): 0.28±0.02 | Infected to normal tissue ratio, Spleen ([3]; With Avidin, 5 Min.): 0.44±0.05 | Infected to normal tissue ratio, Teste ([3]; With Avidin, 5 Min.): 0.59±0.03 | Infected to normal tissue ratio, bone ([3]; With Avidin, 5 Min.): 0.51±0.03 | Infected to normal tissue ratio, Norm mus ([3]; With Avidin, 5 Min.): 0.65±0.10 | Infected to normal tissue ratio, Adrenal ([3]; With Avidin, 60 Min.): 0.214±0.03 | Infected to normal tissue ratio, Blood ([3]; With Avidin, 60 Min.): 0.71±0.05 | Infected to normal tissue ratio, Heart ([3]; With Avidin, 60 Min.): 0.91±0.05 | Infected to normal tissue ratio, Kidney ([3]; With Avidin, 60 Min.): 0.13±0.02 | Infected to normal tissue ratio, Liver ([3]; With Avidin, 60 Min.): 0.33±0.05 | Infected to normal tissue ratio, Lung ([3]; With Avidin, 60 Min.): 0.33±0.06 | Infected to normal tissue ratio, Spleen ([3]; With Avidin, 60 Min.): 0.35±0.04 | Infected to normal tissue ratio, Teste ([3]; With Avidin, 60 Min.): 1.15±0.06 | Infected to normal tissue ratio, bone ([3]; With Avidin, 60 Min.): 0.17±0.03 | Infected to normal tissue ratio, Norm mus ([3]; With Avidin, 60 Min.): 0.64±0.07 | Infected to normal tissue ratio, Adrenal ([3]; Without Avidin, 5 Min.): 0.31±0.02 | Infected to normal tissue ratio, Blood ([3]; Without Avidin, 5 Min.): 0.56±0.04 | Infected to normal tissue ratio, Heart ([3]; Without Avidin, 5 Min.): 0.61±0.03 | Infected to normal tissue ratio, Kidney ([3]; Without Avidin, 5 Min.): 0.30±0.02 | Infected to normal tissue ratio, Liver ([3]; Without Avidin, 5 Min.): 0.31±0.04 | Infected to normal tissue ratio, Lung ([3]; Without Avidin, 5 Min.): 0.36±0.05 | Infected to normal tissue ratio, Spleen ([3]; Without Avidin, 5 Min.): 0.70±0.04 | Infected to normal tissue ratio, Teste ([3]; Without Avidin, 5 Min.): 0.84±0.10 | Infected to normal tissue ratio, bone ([3]; Without Avidin, 5 Min.): 0.67±0.05 | Infected to normal tissue ratio, Norm mus ([3]; Without Avidin, 5 Min.): 0.80±0.12 | Infected to normal tissue ratio, Adrenal ([3]; Without Avidin, 60 Min.): 0.23±0.05 | Infected to normal tissue ratio, Blood ([3]; Without Avidin, 60 Min.): 0.68±0.06 | Infected to normal tissue ratio, Heart ([3]; Without Avidin, 60 Min.): 0.81±0.05 | Infected to normal tissue ratio, Kidney ([3]; Without Avidin, 60 Min.): 0.35±0.03 | Infected to normal tissue ratio, Liver ([3]; Without Avidin, 60 Min.): 0.48±0.33 | Infected to normal tissue ratio, Lung ([3]; Without Avidin, 60 Min.): 0.43±0.20 | Infected to normal tissue ratio, Spleen ([3]; Without Avidin, 60 Min.): 0.78±0.08 | Infected to normal tissue ratio, Teste ([3]; Without Avidin, 60 Min.): 1.04±0.11 | Infected to normal tissue ratio, bone ([3]; Without Avidin, 60 Min.): 0.17±0.03 | Infected to normal tissue ratio, Norm mus ([3]; Without Avidin, 60 Min.): 0.58 ± 0.07 | Infected to normal tissue ratio, Norm mus ([3]; Without Avidin, 60 Min., listed as 18F-labeled biotin 2): 0.58±0.07 | Tissue distribution, Adrenal ([3]; rat, in vivo, iv, 5 min): 2.00±0.24 percent injected dose per gram | Tissue distribution, Blood ([3]; rat, in vivo, iv, 5 min): 0.85±0.04 percent injected dose per gram | Tissue distribution, Bone ([3]; rat, in vivo, iv, 5 min): 0.86±0.12 percent injected dose per gram | Tissue distribution, Heart ([3]; rat, in vivo, iv, 5 min): 0.96±0.10 percent injected dose per gram | Tissue distribution, Inf mus ([3]; rat, in vivo, iv, 5 min): 0.44±0.05 percent injected dose per gram | Tissue distribution, Kidney ([3]; rat, in vivo, iv, 5 min): 2.70±0.48 percent injected dose per gram | Tissue distribution, Liver ([3]; rat, in vivo, iv, 5 min): 1.91±0.22 percent injected dose per gram | Tissue distribution, Lung ([3]; rat, in vivo, iv, 5 min): 1.59±0.16 percent injected dose per gram | Tissue distribution, Norm mus ([3]; rat, in vivo, iv, 5 min): 0.69±0.10 percent injected dose per gram | Tissue distribution, Spleen ([3]; rat, in vivo, iv, 5 min): 0.99±0.10 percent injected dose per gram | Tissue distribution, Teste ([3]; rat, in vivo, iv, 5 min): 0.74±0.11 percent injected dose per gram | Tissue distribution, Adrenal ([3]; rat, in vivo, iv, 1 h): 0.72±0.12 percent injected dose per gram | Tissue distribution, Bone ([3]; rat, in vivo, iv, 1 h): 1.10±0.20 percent injected dose per gram | Tissue distribution, Inf mus ([3]; rat, in vivo, iv, 1 h): 0.18±0.02 percent injected dose per gram | Tissue distribution, Liver ([3]; rat, in vivo, iv, 1 h): 0.55±0.13 percent injected dose per gram | Tissue distribution, Lung ([3]; rat, in vivo, iv, 1 h): 0.55±0.12 percent injected dose per gram | Tissue distribution, Norm mus ([3]; rat, in vivo, iv, 1 h): 0.28±0.04 percent injected dose per gram | Tissue distribution, Spleen ([3]; rat, in vivo, iv, 1 h): 0.51±0.09 percent injected dose per gram | Tissue distribution, Teste ([3]; rat, in vivo, iv, 1 h): 0.15±0.02 percent injected dose per gram

^67Ga-citrate
Infected/normal muscle ratio [4]: 2.6±0.6
